Results reported in EP0974351A2, “Medicament for preventing and treating gastrointestinal damage” (JOUVEINAL, priority 1998, dated 2000).

Assays:
[1] = tested on: gastric damage induced by indomethacin; assay: Indomethacin (80 mg/kg) gastric damage in rats, percent of gastric area damaged by image analysis; type: in vivo, Male CD-Sprague-Dawley rats; conditions: indomethacin + vehicle 5.56 ± 0.48
Experimental: The following test in rats was carried out to further establish the ability of gabapentin and Pregabalin to reduce the gastrointestinal damage caused by NSAIDS.
(§1) Male CD-Sprague-Dawley rats (132-202 g) were received and housed in a room with controlled temperature, humidity, and 12-hour light/dark cycle. After a period of acclimatization of 4 to 5 days, and after a 24-hour food fasting period, animals were used for the study described below.
(§2) Gabapentin or pregabalin (CI-1008) were dissolved in water and administered orally at the following doses: 1, 10, 100, and 200 mg/kg in a volume of 1 mL. Control animals were dosed with an equal volume of vehicle (1 mL of water). Sixty minutes later, all the animals received 1 mL of a solution of 80 mg/kg indomethacin dissolved in 5% aqueous NaHCO3. Control animals received 1 mL of 5% aqueous NaHCO3 orally. Experimental groups were as follows:
(§3) Animals were sacrificed by decapitation 4 hours post-indomethacin administration. The stomach was removed and opened along the greater curvature and its image digitized and stored on an optical disk using a 486-based PC computer equipped with CUE3 system imaging analysis software (Olympus Corp., Marietta, Georgia, USA). Two 6-mm biopsies were taken from a constant region of the gastric mucosa located in each side of the glandular portion of the stomach and their PGE2 content was measured using a commercially available ELISA kit (Assay Designs Inc., Ann Arbor, Michigan, USA). The presence of gastric damage was determined using the retrieved electronic image, and the extent of damage was measured using the CUE3 imaging software. Data are expressed as a percent of gastric area damaged and the PGE2 content (pg/mL).

[2] = tested on: Inflammatory Colonic Pain Induced by Intramural Injection of Formalin 5%; assay: Inflammatory colonic pain induced by intramural injection of formalin 5% in rats; type: in vivo, Adult female Sprague-Dawley rats; conditions: for % Antinociception: intracolonic formalin 5%, 50 µL/rat; for pain score induced by intracolonic formalin (in words): gabapentin 100, 300, 500 mg/kg sc, CI-1008 100, 200 mg/kg sc
Experimental: The GABA analogs were evaluated in another model to determine their effect on inflammatory visceral pain.
Administration of formalin into the wall of the rat colon causes acute inflammation and visceral pain. The aim of this study was to evaluate the antinociceptive activity of gabapentin and CI-1008 in visceral pain induced by colonic intrapariental injection of formalin.
Adult female Sprague-Dawley rats weighing 240 to 260 g were used in the study. The animals were housed three per cage in a regulated environment (20 ± 1°C 50 ± 5% humidity, with light 8:00 AM to 8:00 PM) prior to use in the test.
Each test animal was placed in a transparent plastic cage (27 x 43 x 25 cm) with a layer of wood shavings on the floor. Drinking water was available. Cages were placed in such a way that visual interaction between animals was avoided. A mirror was positioned behind each cage to improve the recording of behaviors. Each animal was initially allowed 20 minutes to get used to its surroundings. Anesthesia was then achieved by using isofurane (starting 4%, then 1.5% in a mixture of […] nitrous oxide and 1:3 oxygen). The animal was suspended by its tail, the rectum was gently emptied with a cotton-capped stalk, and a coloscope was inserted through the anus. This designed endoscope has a lateral slot that allows for puncture of the intestinal wall under visual control, using a 51-mm-long needle (26 ga), at about 35 mm from the anal margin. Injected solutions were either 50 µL 5% formalin, or the same volume of isotonic saline. Animals were allowed to recover from anesthesia as soon as the injection was completed (about 1 minute), and the observation period was started and continued for 2 hours. Thirty minutes after the end of the observation test, an IV injection of Evans Blue (1%) was administered, and 30 minutes later the animal was sacrificed. The abdomen was opened. The injection site and the zone of diffusion of Evans Blue were recorded by image analysis software. Data from rats in which the spread of the dye was not restricted to the sigmoid wall were discarded.
As listed in increasing order of pain intensity, these behaviors were: (i) abdominal licking and nibbling (L), (ii) body stretching, i.e., backward extension of the hind limbs (B), (iii) contraction of the flanks, sometimes evolving to a stretching attitude (C), and (iv) whole body contraction, the rat standing with its back curved, occasionally further graded according to the duration of the given episode: W1 for less than 30 seconds, W2 between 30 seconds and 1 minute, and W3 for more than 1 minute. Behaviors were recorded for each animal throughout the 2-hour test on individual charts. A pain score (S) was then calculated for each of the successive 15-minute periods, using the following formula: S = 1L + 2B + 3C + 4W1 + 5W2 + 6W3 [formula] whereby the pain score was proportional to (i) the number of episodes of each selected behavior, and (ii) the coefficient, from 1 to 6, attributed to the given behaviors.
All compounds were dissolved in saline. Subcutaneous injection of vehicle was given in a volume of […]. Formalin was purchased from Prolabo.
Statistical significance between each group was determined by using a one-way ANOVA followed by Student's unpaired t-test. Differences were considered statistically significant at p <0.05.
Hyperalgesia is induced by intramural injection of formalin (5%, 50 µL/rat) into the colonic wall in unfasted female Sprague-Dawley rats. Gabapentin and CI-1008 were tested at 100, 300, 500 and 100, 200 mg/kg sc, respectively. […] The maximal inhibitory effect was observed after 500 mg/kg of gabapentin and 200 mg/kg of CI-1008.

PGE2 = PGE2 content of gastric mucosa biopsies (ELISA) in indomethacin-treated rats; type: in vivo, Male CD-Sprague-Dawley rats; conditions: for effect on the inhibition of PGE2 caused by indomethacin: any dose tested (1-200 mg/kg orally)
Experimental: as §1, §2, §3

[3] = 1 mg/kg orally 60 min before indomethacin 80 mg/kg, 4 hours post-indomethacin, average ± standard error
[4] = 10 mg/kg orally 60 min before indomethacin 80 mg/kg
[5] = 100 mg/kg orally 60 min before indomethacin 80 mg/kg
[6] = 200 mg/kg orally 60 min before indomethacin 80 mg/kg
[7] = 1 mg/kg orally before indomethacin 80 mg/kg, control 9525.27 ± 156.00, indomethacin + vehicle 1908.03 ± 72.31
[8] = 10 mg/kg orally before indomethacin 80 mg/kg, indomethacin + vehicle 1908.03 ± 72.31
[9] = 100 mg/kg orally before indomethacin 80 mg/kg, indomethacin + vehicle 1908.03 ± 72.31
[10] = 200 mg/kg orally before indomethacin 80 mg/kg, indomethacin + vehicle 1908.03 ± 72.31

| Compound | % Area Damaged [1, 3] | % Area Damaged [1, 4] | % Area Damaged [1, 5] | % Area Damaged [1, 6] | % Antinociception ([2]; 0.3 mg/kg sc (so in the source)) | % Antinociception ([2]; 100 mg/kg sc) | % Antinociception ([2]; 300 mg/kg sc) | % Antinociception ([2]; 500 mg/kg sc) | pain score induced by intracolonic formalin (in words) [2] | PGE2 Synthesis (PGE2; [7]) | PGE2 Synthesis (PGE2; [8]) | PGE2 Synthesis (PGE2; [9]) | PGE2 Synthesis (PGE2; [10]) | effect on the inhibition of PGE2 caused by indomethacin (PGE2) | % Antinociception ([2]; 200 mg/kg sc) |
| --- | --- | --- | --- | --- | --- | --- | --- | --- | --- | --- | --- | --- | --- | --- | --- |
| NCC1(CC(=O)O)CCCCC1 [Gabapentin, 1-(aminomethyl)-cyclohexane acetic acid] | 2.99 ± 0.46% | 3.96 ± 0.35% | 1.87 ± 0.1% | 1.43 ± 0.40% | -7.73% | 13.62% | 55.07% | 88.01% | significantly and dose-dependently decreased | 1783.66 ± 73.47 pg/mL | 3065.78 ± 137.19 pg/mL | 2997.90 ± 226.80 pg/mL | 2615.74 ± 165.36 pg/mL | Neither gabapentin nor CI-1008, at any dose tested, were able to significantly modify this effect | – |
| CC(C)C[C@H](CN)CC(=O)O [CI-1008, (S)-3-(aminomethyl)-5-methylhexanoic acid] | 8.07 ± 2.19% | 4.07 ± 0.42% | 1.99± 0.25 % | 0.34 ± 0.06 % | – | 18.55% | – | – | significantly and dose-dependently decreased | 1209.95 ± 105.50 pg/mL | 2666.16 ± 307.45 pg/mL | 3994.45 ± 318.95 pg/mL | 3288.92 ± 407.43 pg/mL | Neither gabapentin nor CI-1008, at any dose tested, were able to significantly modify this effect | 70.81% |
